Test results from patent publication US11071747B2, “Use of NAD precursors for breast enhancement” (UNIVERSITY OF IOWA RESEARCH FOUNDATION, priority 2016, dated 2021).
“Also recorded” adds a separate entry of the source.

How the values were obtained:
[1] = system: mammary glands #4 and 5; test: NR diet for six weeks in eight month-old female and male mice, mammary gland weight; assay type: in vivo; settings: NR diet six weeks vs NC
Protocol: FIG. 4. NR increases mammary gland tissue weight of female but not male mice. Eight month-old mice were put on NC or NR diet for six weeks. Mammary glands #4 and 5 were measured and plotted by normalizing to the body weight of each mouse. […] In FIG. 4, eight month-old mice were put on normal chow (NC) or NC+NR (NR) diets for six weeks. Mammary glands #4 and 5 were measured and plotted by normalizing to the body weight of each mouse.

[2] = system: mammary glands of female rodents; test: NR-supplemented diet in adult female rodents, overall findings; assay type: in vivo, mice and rats
Protocol: As described herein, a series of experiments were performed to examine the effect of nicotinamide riboside (NR) on mammary tissue. It was determined that the provision of NR in the diet of female mice and female rats promoted mammary development (e.g., increases mammary gland tissue weight). […] These experiments show the unanticipated and potentially value effect of supplementing females with NR or other NAD precursors.

[3] = system: mammary glands of lactating mice; test: NR-supplemented diet in lactating female mice, mammary gland mass and Carmine/Alum staining; assay type: in vivo, C57BL/6N mice
Excerpt: FIGS. 1A-B. NR increases the mass of mammary glands of lactating mice. C57BL/6 female mice were fed normal chow (NC) diet and mated to a C57BL/6 male. After gestation and birth, females remained on NC or were on or a diet supplemented with 3 g/kg nicotinamide riboside chloride (NR). At day 14, the females were sacrificed and mammary glands 1-5 were removed for analysis. FIG. 1A. […] FIG. 1B. Mammary glands 4 and 5 isolated from lactating females were stained with Carmine/Alum staining.
The data are based on a trial with female C57BL/6N mice raised in 12 hour light:dark cycles on Teklad 2920X chow (NC). It was asked whether addition of NR chloride (3 g/kg of chow) to the diet of female mice would augment mammary tissue. Accordingly, for 12 weeks prior to mating with a single C57BL/6N male, females were on either NC (n=4) or NC+NR (n=4). Females were maintained on the same diet for 14 days post-partum.

[4] = system: mammary gland #4-5 and brown adipose tissue of female rats; test: NR diet in virgin female rats, mammary gland and brown adipose tissue weight; assay type: in vivo; settings: NR diet vs normal chow
Protocol: FIGS. 3A-C. […] Adipose tissues of female rats on normal chow diet (NC) or normal chow with nicotinamide riboside (NR). FIG. 3A. Mammary gland #4-5 were isolated and the weight was recorded. […] FIG. 3B. Images of dissected mammary gland #4-5. FIG. 3C. Weight of brown adipose tissue (BAT). To determine if the effect of NR on females was a mouse-specific phenomenon, additional experiments were performed. Specifically, virgin female rats were fed either NC or NR diets prior to dissection.

[5] = system: mammary glands of virgin female mice; test: NR oral supplementation in virgin female mice, mammary gland development; assay type: in vivo
Excerpt: FIGS. 2A-E. NR oral supplementation promotes mammary gland development in virgin female mice (non-lactating females). FIG. 2A. […] FIG. 2B. Carmine/Alum staining of mammary glands. FIG. 2C. Quantification of mammary gland ductal length can be assessed by taking the measurement of the left (L1), right (L2), top (L3) and bottom (L4) branchings expressed in cm. FIG. 2D. […] FIG. 2E.

[6] = system: mammary gland of rats; test: Xylene clearing of mammary adipose tissue of NR-fed rats; assay type: in vivo
Excerpt: FIGS. 5A-B. NR-supplemented mammary tissue is partially resistant to xylene extraction. FIG. 5A. […] Eight month-old female mice were on NC or NR diet for six weeks. Mammary glands #4-5 were isolated, fixed, stained with Carmine/Alum stain and xylene was use to extract fat. […] FIG. 5B. NR-fed rats have mammary gland with a different fat composition.

[7] = system: mammary glands #4-5 of female mice; test: Xylene extraction of fat from stained mammary glands of NR-fed female mice; assay type: in vivo; settings: eight month-old female mice, NR diet six weeks
Excerpt: FIGS. 5A-B. NR-supplemented mammary tissue is partially resistant to xylene extraction. FIG. 5A. […] Eight month-old female mice were on NC or NR diet for six weeks. Mammary glands #4-5 were isolated, fixed, stained with Carmine/Alum stain and xylene was use to extract fat. […] FIG. 5B. NR-fed rats have mammary gland with a different fat composition. […] Eight month-old female mice were on NC or NR diet for six weeks. Mammary glands #4-5 were isolated, fixed, stained with Carmine/Alum stain and subjected to an extraction with xylene to remove fat.

NC(=O)c1ccc[n+]([C@@H]2O[C@H](CO)[C@@H](O)[C@H]2O)c1 [NR, nicotinamide riboside]
mammary gland #4 and 5 weight normalized to body weight ([1]; eight month-old female mice): more mammary gland tissue in comparison to the NC group
mammary gland #4 and 5 weight normalized to body weight ([1]; eight month-old male mice): no significant increase in mammary tissue weight
development of beige or brown fat ([2]; NR supplementation, female rodents): leads to development of beige or brown fat
fat pad formation, epithelial branching, alveolar and lobule development of mammary glands ([2]; adult females, virginal or pregnant, diet supplemented with NR): increase in fat pad formation, epithelial branching, alveolar and lobule development
mass of mammary glands ([3]; lactating C57BL/6 females, diet with 3 g/kg NR chloride vs normal chow, day 14 post-partum, mammary glands 1-5): more mammary tissue than those on normal chow; also recorded: more massive mammary glands
lactating mammary tissue (Carmine/Alum staining) ([3]; lactating females, mammary glands 4 and 5, NR diet vs normal chow): more lactating mammary tissue
weight of brown adipose tissue (BAT) ([4]; female rats): increases the mass of mammary gland #4 and #5 and brown adipose tissue (BAT)
weight of mammary gland #4-5 ([4]; virgin female rats): increased the size of mammary tissues in rats; also recorded: more mammary gland tissue
mammary gland with beige fat ([5]; twelve week-old virgin female mice, NR supplementation for two weeks): more mammary gland with beige fat
surface area of mammary gland #4-5 ([5]; virgin female mice, NR oral supplementation): increases the surface area of mammary gland #4-5
mammary gland ductal length measurements ([5]; virgin female mice, NR oral supplementation, L1-L4 branchings): increases ductal length measurements
subcutaneous adipose tissue and epithelial duct branching ([5]; virgin mice, not exposed to males): significant increase of the subcutaneous adipose tissue and epithelial duct branching
clearing of mammary adipose tissue by xylene [6]: poorly cleared by xylene
fat composition of the mammary gland [7]: changes the fat composition of the mammary gland
fat remaining in mammary glands after xylene extraction ([7]; 1 week of incubation in xylene): more fat remaining
